Assay results taken from publication PMC4669708 (Cell Death & Disease, 2015).

How the values were obtained:
Jurkat E6.1 cells = assay: FasL-induced apoptosis, cell viability; type: cell-based; settings: 100 ng/ml human FasL, 24 h; 0.5 μM ponatinib, 5 μM pazopanib
Method: (§1) Cells were seeded in 12-, 24- or 96-well plates at proper cell density. For necroptosis or apoptosis assays, cells were incubated with the indicated compound combinations at concentrations stated for 14–24 h. Smac mimetic and z-VAD-FMK were added 30–60 min before treatment with TNF-α, FasL or TRAIL. Cell viability was determined using CellTiter Glo Luminescent Cell Viability Assay (Promega, Fitchburg, WI, USA) according to the manufacturer's instructions. Luminescence was recorded with a SpectraMax M5Multimode plate reader (Molecular Devices, Sunnyvale, CA, USA). For flow cytometry-based determination of viability, cells were harvested, collected by centrifugation, washed once and resuspended in staining buffer (1 × PBS, 10% FBS). Cells were incubated with 0.5 μg/ml PI for 10 min at room temperature (RT) in the dark. Flow cytometric analyses were performed on an LSR Fortessa (BD Biosciences) and analyzed with FlowJo software version 7.6.3 (Tree Star Inc, Ashland, OR, USA). Cell size was evaluated by forward scatter. PI-negative normal-sized cells were considered living and data were normalized to values of untreated controls. For detection of apoptosis, cells were resuspended in Annexin V Binding Buffer (BioLegend, San Diego, CA, USA) and stained with 0.5 μg/ml PI and Alexa Fluor 647 Annexin V (BioLegend) according to manufacturer's instructions.

HT-29 cells [1] = assay: TNF-α/Smac mimetic/z-VAD-FMK (TSZ)-induced necroptosis, cell viability; type: cell-based, human; settings: for rescue of TSZ-induced necroptotic cell death: compounds 1 μM, 20 ng/ml TNF-α, 500 nM Smac mimetic, 20 μM z-VAD overnight
Method: as §1, with “controls.” for “controls. For detection of apoptosis, cells were resuspended in Annexin V Binding Buffer (BioLegend, San Diego, CA, USA) and stained with 0.5 μg/ml PI and Alexa Fluor 647 Annexin V (BioLegend) according to manufacturer's instructions.”

3T3-SA cells = assay: TNF-α/z-VAD (TZ)-induced necroptosis; type: cell-based, murine; settings: Supplementary Figures 3a, b
Method: as §1

recombinant RIPK1 = target: T1, recombinant RIPK1 (Homo sapiens, UniProt Q13546); assay: Recombinant kinase assay; type: biochemical; settings: 50 μM ATP; Supplementary Figure 4b
T1 construct: purchased Signalchem R07-10G
T1 sequence (Q13546 1-327 limits assumed): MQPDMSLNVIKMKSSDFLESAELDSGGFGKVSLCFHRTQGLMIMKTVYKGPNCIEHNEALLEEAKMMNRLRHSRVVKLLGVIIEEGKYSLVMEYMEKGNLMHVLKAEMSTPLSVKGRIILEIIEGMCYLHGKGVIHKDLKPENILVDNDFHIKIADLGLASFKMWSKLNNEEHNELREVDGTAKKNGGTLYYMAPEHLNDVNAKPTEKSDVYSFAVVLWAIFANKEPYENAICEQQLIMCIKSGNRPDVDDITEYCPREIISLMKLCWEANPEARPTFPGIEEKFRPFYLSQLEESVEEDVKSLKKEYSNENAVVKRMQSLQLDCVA
Method: (§2) Recombinant RIPK1 or RIPK3 protein was incubated with the substrate MBP in kinase assay buffer (40 mM Tris-HCl pH 7.5, 10 mM MgCl2 and 1 mM DTT) in presence of 50 μM ATP, 5 μCi [γ-32 P]ATP and the indicated inhibitors in a total volume of 20 μl. […] The terminated reactions were spotted onto a SAM2 Biotin Capture membrane (Promega) and further processed according to the manufacturer's instructions. […] Data were normalized to a DMSO-treated control sample. For autoradiography, the reactions were stopped by addition of 5 μl 4x Laemmli buffer and incubated for 5 min at 95 °C.

HT-29 cells [2] = assay: TRAIL- or FasL-induced necroptosis with Smac mimetic and z-VAD; type: cell-based, human; settings: 0.5 μM ponatinib, 5 μM pazopanib
Method: as §1

HT-29 MLKL S358D cells = assay: Cell death driven by doxycycline-induced MLKL S358D expression; type: cell-based, human; settings: 2 μg/ml doxycycline overnight; 10 μM NSA, 0.5 μM ponatinib
Method: as §1

[3] = test system: FADD-deficient Jurkat cells; assay: TNF-α-induced necroptosis, cell viability (CellTiter Glo); type: cell-based, human; settings: for EC50: CellTiter Glo, read-out: EC50 for inhibiting necroptosis; for prevention of necroptotic cell death: dose range, Figure 2a, b
Method: as §1, with “controls.” for “controls. For detection of apoptosis, cells were resuspended in Annexin V Binding Buffer (BioLegend, San Diego, CA, USA) and stained with 0.5 μg/ml PI and Alexa Fluor 647 Annexin V (BioLegend) according to manufacturer's instructions.”
The compounds were transferred into drug plates by acoustic droplet ejection using an Echo 520 liquid handler (LABCYTE, Sunnyvale, CA, USA). Necroptosis was induced in FADD-deficient Jurkat cells by addition of 10 ng/ml TNF-α immediately before seeding onto drug plates at a density of 1x10^4 cells/well. After 16 h incubation, cell viability was determined using CellTiter Glo Luminescent Cell Viability Assay according to manufacturer's instructions. Data analysis was performed by calculating a percentage of control to normalize for variability across different plates. The signal for the negative control DMSO wells was set to 0%, whereas the wells containing the positive control Nec-1 were put to 100% for each plate individually.

RIPK3 = RIPK3 (Homo sapiens, UniProt Q9Y572); assay: Recombinant kinase assay; type: biochemical; design: purchased Signalchem R09-10G
Sequence of RIPK3 (Q9Y572 whole entry): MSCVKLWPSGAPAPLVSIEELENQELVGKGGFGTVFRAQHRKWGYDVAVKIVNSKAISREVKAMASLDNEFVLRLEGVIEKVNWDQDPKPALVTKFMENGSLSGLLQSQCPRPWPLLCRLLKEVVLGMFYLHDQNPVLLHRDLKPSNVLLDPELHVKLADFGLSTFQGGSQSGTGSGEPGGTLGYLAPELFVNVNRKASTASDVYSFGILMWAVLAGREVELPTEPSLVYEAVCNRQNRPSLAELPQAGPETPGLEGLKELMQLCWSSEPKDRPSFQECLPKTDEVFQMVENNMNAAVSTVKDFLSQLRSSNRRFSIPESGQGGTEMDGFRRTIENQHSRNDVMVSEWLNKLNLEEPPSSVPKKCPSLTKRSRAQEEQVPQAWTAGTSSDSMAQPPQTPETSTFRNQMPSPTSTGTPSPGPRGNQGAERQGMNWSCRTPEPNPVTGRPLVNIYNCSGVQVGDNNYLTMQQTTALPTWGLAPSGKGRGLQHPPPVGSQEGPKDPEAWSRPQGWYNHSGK
Method: as §2

For “5-[[4-[(2,3-dimethyl-2H-indazol-6-yl)methylamino]-2-pyrimidinyl]amino]-2-methyl-b enzenesulfonamide [pazopanib]”, the “inhibition of apoptotic cell death triggered by FasL” value (Jurkat E6.1 cells) was “none of the drugs inhibited apoptotic cell death”, the EC50 (HT-29 cells [1]; TSZ treatment, read-out: EC50 (necroptosis block)) was 0.873 µM and the “rescue of TSZ-induced necroptotic cell death” value (HT-29 cells [1]) was “rescued”. For the same molecule, the “block of necroptotic cell death” value (3T3-SA cells) was “capable of blocking necroptotic cell death with comparable potency”, the “RIPK1 kinase activity (MBP phosphorylation)” value (recombinant RIPK1) was “inhibiting RIPK1 kinase activity” and the “block of TRAIL-induced cell death” value (HT-29 cells [2]; 200 ng/ml TRAIL + 500 nM Smac mimetic + 20 μM z-VAD) was “similarly blocked”. For the same molecule, the “block of FasL-induced necroptotic cell death” value (HT-29 cells [2]; 200 ng/ml human FasL + 500 nM Smac mimetic + 20 μM z-VAD) was “similarly blocked”, the “block of cell death driven by MLKL S358D expression” value (HT-29 MLKL S358D cells) was “did not block MLKL S358D-driven necroptosis” and the EC50 ([3]; 10 ng/ml TNF-α overnight) was 0.254 µM. For the same molecule, the “rescue of cell viability in drug screen” value ([3]; 0.5 and 1.5 μM, 10 ng/ml TNF-α overnight) was “robustly rescued cell viability at both concentrations”.

With `COc1nccnc1NS(=O)(=O)c1ccc(NC(=O)/C=C/c2ccc([N+](=O)[O-])s2)cc1` [NSA, necrosulfonamide] the “block of cell death driven by MLKL S358D expression” value (HT-29 MLKL S358D cells) was “could be blocked”.

For `CN1C(=O)NC(Cc2c[nH]c3c(Cl)cccc23)C1=O` (stereo not shown) [Nec-1s, 7-Cl-O-Nec-1], the RIPK3 autophosphorylation (RIPK3; autoradiography, Supplementary Figure 4c) was “showed no effect” and the EC50 ([3]; 10 ng/ml TNF-α overnight) was 0.238 µM.

With `COc1cc(O)c2c(c1)/C=C/C[C@H](O)[C@H](O)C(=O)/C=C\C[C@H](C)OC2=O` [TAK1 inhibitor] the protection to necroptosis ([3]; Supplementary Figures 6b, c) was “not able to confer protection to necroptosis”.

`COc1cc(Nc2c(C#N)cnc3cc(OCCCN4CCN(C)CC4)c(OC)cc23)c(Cl)cc1Cl` [bosutinib] was tested, and the “rescue of TSZ-induced necroptotic cell death” value (HT-29 cells [1]) was “neither of the other four BCR-ABL inhibitors nor vandetanib did” and the “prevention of necroptotic cell death” value ([3]; 10 ng/ml TNF-α overnight) was “none of the other drugs prevented necroptotic cell death”.

With `Cc1nc(Nc2ncc(C(=O)Nc3c(C)cccc3Cl)s2)cc(N2CCN(CCO)CC2)n1` [dasatinib] the “rescue of TSZ-induced necroptotic cell death” value (HT-29 cells [1]) was “neither of the other four BCR-ABL inhibitors nor vandetanib did”, the “RIPK3 kinase activity (MBP phosphorylation)” value (RIPK3; 50 μM ATP, Figure 4e inhibitors at 10 μM) was “interfered with RIPK3 activity” and the “prevention of necroptotic cell death” value ([3]; 10 ng/ml TNF-α overnight) was “showed a modest effect but only at drug concentrations high enough to induce toxicity”.

`Cc1ccc(NC(=O)c2ccc(CN3CCN(C)CC3)cc2)cc1Nc1nccc(-c2cccnc2)n1` [imatinib] was tested, and the “rescue of TSZ-induced necroptotic cell death” value (HT-29 cells [1]) was “neither of the other four BCR-ABL inhibitors nor vandetanib did” and the “prevention of necroptotic cell death” value ([3]; 10 ng/ml TNF-α overnight) was “none of the other drugs prevented necroptotic cell death”.

With `Cc1cn(-c2cc(NC(=O)c3ccc(C)c(Nc4nccc(-c5cccnc5)n4)c3)cc(C(F)(F)F)c2)cn1` [nilotinib] the “rescue of TSZ-induced necroptotic cell death” value (HT-29 cells [1]) was “neither of the other four BCR-ABL inhibitors nor vandetanib did” and the “prevention of necroptotic cell death” value ([3]; 10 ng/ml TNF-α overnight) was “none of the other drugs prevented necroptotic cell death”.

With `COc1cc2c(Nc3ccc(Br)cc3F)ncnc2cc1OCC1CCN(C)CC1` [vandetanib] the “rescue of TSZ-induced necroptotic cell death” value (HT-29 cells [1]) was “neither of the other four BCR-ABL inhibitors nor vandetanib did” and the “prevention of necroptotic cell death” value ([3]; 10 ng/ml TNF-α overnight) was “did not confer protection”.
